Measured values reported in patent EP4410284A1, “COMPOUND AND METHOD FOR THE TREATMENT OF ZELLWEGER SPECTRUM DISORDER” (Apteeus, priority 2023, dated 2024).
Structures can show the parent of a compound that is named as a salt. Where two headings read alike, the source gives them in different places.

Tests used:
[1] = tested on: PEX405 cells; assay: Catalase import immunofluorescence, high-content screening (% importing cells); assay type: cell-based, human; conditions: PEX405 cells, 3 days
[2] = tested on: GM16513 cells; assay type: cell-based; conditions: 3 days, PI positive cells (dead cells)
[3] = tested on: PEX405 cells; assay type: cell-based; conditions: 3 days, PI positive cells (dead cells)
[4] = tested on: GM16513 cells; assay: Catalase import immunofluorescence, high-content screening (% importing cells); assay type: cell-based, human; conditions: GM16513 cells, 3 days; for EC50 / Emax: Homo sapiens, 72 h, dose response with 6 concentrations; for EC50: read-out: EC50; for Emax: read-out: Max Efficacy (% Importing cells)

% PI+ cells ([2]; 1.3 µM) [%]	% PI+ cells ([2]; 10 µM) [%]	% PI+ cells ([3]; 1.3 µM) [%]	% PI+ cells ([3]; 10 µM) [%]	EC50 [4] [nM]	Molecule	% Importing cells ([1]; 1.3 µM) [%]	% Importing cells ([1]; 10 µM) [%]	% Importing cells ([4]; 1.3 µM) [%]	% Importing cells ([4]; 10 µM) [%]	Emax [4] [%]
1	1	1	0		CCOC(=O)c1cnc(NC2(c3ccccc3)CC2)nc1 [CG347B]	4	5	25	21	
1	3	1	1		CC(=O)Nc1ccc(C(=O)Nc2cc(-c3cccs3)ccc2N)cc1 [BRD-6929]	20	38	66	88	
1	1	0	1		O=C(NO)c1cccc(C(=O)NCCc2ccccc2)c1 [BRD73954]	3	4	19	23	
4	31	2	41	170	CCCCc1nc2cc(/C=C/C(=O)NO)ccc2n1CCN(CC)CC [Pracinostat]	52	25	92	86	93
2	23	1	44	700	C#Cc1cccc(Nc2ncnc3cc(OC)c(OCCCCCCC(=O)NO)cc23)c1 [CUDC-101]	23	49	60	90	100
2	7	2	6	470	Nc1ccccc1NC(=O)c1ccc(CNC(=O)OCc2cccnc2)cc1 [Entinostat]	15	12	45	58	54
1	5	0	2		O=C(NO)c1ccc(CN2CCCc3cc(Cl)ccc32)cc1 [SW-100]	4	0	21	6	
2	14	0	2		COc1ccc(/C=C/C(=O)NO)c(-c2ccc(-c3ccccc3)cc2)c1 [HDAC8-IN-1]	2	0	10	3	
2	15	1	16		Cc1cc(C)cc(C(=O)NOCCCCCC(=O)NO)c1 [LMK-235]	45	18	86	95	
2	1	1	1		ACY-1083	5	4	17	42	
1	3	1	2		Cc1ccc(NC(=O)CCCCCC(=O)Nc2ccccc2N)cc1 [Pimelic Diphenylamide 106]	4	17	22	52	
11	40	9	61		Cl.O=C(NO)c1ccc(Cn2cc(-c3ccc(CN4CCCC4)cc3)nn2)cc1 [FNDR-20123]	7	0	84	47	
1	1	0	0		O=C(NO)c1cccc2ccccc12 [1-Naphthohydroxamic acid]	3	2	12	13	
1	3	0	2		O=C(NO)c1ccc(Cn2c(=O)n(CCc3ccccc3)c(=O)c3ccccc32)cc1 [J22352]	5	3	30	47	
1	1	0	1		O=C(NCC1(c2nc(-c3ccccc3)cs2)CCOCC1)c1cccc(-c2noc(C(F)(F)F)n2)c1 [TMP269]	3	3	11	7	
3	26	4	43		O=C(CCc1ccc(CN[C@H](C(=O)OC2CCCC2)C2CCCCC2)cn1)NO [HDAC-IN-3]	11	0	50	81	
1	4	0	2	1500	Nc1cc(F)ccc1NC(=O)c1ccc(CNC(=O)/C=C/c2cccnc2)cc1 [Tucidinostat]	14	28	43	64	70
2	8	1	4	1400	CN(C)Cc1ccc(S(=O)(=O)n2ccc(/C=C/C(=O)NO)c2)cc1 [Resminostat (hydrochloride), Resminostat]	13	19	60	83	86
2	5	1	1		CC(C)(C)c1ccc(C(=O)Nc2ccc(C(=O)NO)cc2)cc1 [AES-350]	5	10	22	45	
2	3	1	1		Nc1ccccc1NC(=O)CCCCCCC(=O)Nc1ccccc1 [BML-210]	7	19	24	73	

Molecule	% PI+ cells ([2]; 1.3 µM) [%]	% PI+ cells ([2]; 10 µM) [%]	% PI+ cells ([3]; 1.3 µM) [%]	% PI+ cells ([3]; 10 µM) [%]	EC50 [4] [nM]	% Importing cells ([1]; 1.3 µM) [%]	% Importing cells ([1]; 10 µM) [%]	% Importing cells ([4]; 1.3 µM) [%]	% Importing cells ([4]; 10 µM) [%]	Emax [4] [%]
Nc1[nH]c(=O)nc2c1ncn2[C@@H]1O[C@H](CO)[C@@H](O)[C@H]1O [Crotonoside]	1	1	0	1		3	3	20	18	
